“Also recorded” adds a separate entry of the source. Like-named read-outs stand apart in the source and are kept apart here.

One test addresses B-RAF^V600E kinase (Homo sapiens (Human), UniProt P15056, V600E). As to the kind of experiment: LanthaScreen Eu kinase binding assay (B-RAF V600E). Particulars: tracer 178 competition, 5 hours.
The target of another test is C-RAF Y340D/Y341D kinase (Homo sapiens (Human), UniProt P04049, Y340D/Y341D). As to the kind of experiment: LanthaScreen Eu kinase binding assay (C-RAF). Particulars: tracer 178 competition, 5 hours.
The subject of test [1] is ERK phosphorylation in WiDr cells (B-RAF^V600E). Description: WiDr AlphaScreen SureFire pERK1/2 cellular assay. Format: cell-based. Particulars: Homo sapiens.
Protocol: The human WiDr colorectal cell line endogenously expresses the B-RAF^V600E mutation, which leads to constitutive activation of the MAP kinase pathway and phosphorylation of ERK in the absence of ligands.
On day 2, compounds at a concentration of 6 mM are serially diluted 10 μl into 90 μl of 100% dimethyl sulfoxide (DMSO) six times in 96-well plates for a total of 7 dilution points. Each dilution and a DMSO control are further diluted 1:200 (e.g. 5 μl into 995 μl minimum essential medium+0.1% fetal bovine serum). The media is removed and 100 μl compound dilution or control in minimum essential medium+0.1% fetal bovine serum is added to triplicate wells containing cells, providing 30 μM compound at the maximum concentration. The cells are treated for 1 hour or 24 hours at 37° C. The treatment is then removed and the cells are incubated with lysis buffer containing phosphatase inhibitors for 10 minutes at room temperature. […] The biotinylated antibody binds to the streptavidin-coated donor beads and the phopsho-ERK1/2 antibody binds to the acceptor beads. Plates are read on an EnVision reader (Perkin Elmer) and excitation of the beads at 680 nm with a laser induces the release of singlet oxygen molecules from the donor beads that triggers energy transfer to the acceptor beads in close proximity, producing a signal that can be measured at 570 nm. Both antibodies bind to phosphorylated ERK proteins, bringing the donor and acceptor beads into close proximity.
(§1) All data are analysed using the GraphPad Prism software package.
Test [2] has as its system ERK phosphorylation in A375 cells (B-RAF^V600E). As to the kind of experiment: A375 AlphaScreen SureFire pERK1/2 cellular assay. To be noted: Homo sapiens, A-375, 0.5 h, 30 minutes treatment. Format: cell-based. For orientation: Bead proximity is the source of the signal in Alpha formats.
Protocol: On day 2, compounds at a concentration of 6 mM are serially diluted 10 μl into 90 μl of 100% dimethyl sulfoxide (DMSO) six times in 96-well plates for a total of 7 dilution points. Each dilution and a DMSO control are further diluted 1:200 (e.g. 5 μl into 995 μl serum-free growth media). The media is removed and 50 μl compound dilution or control in serum-free media is added to triplicate wells containing cells, providing 30 μM compound at the maximum concentration. The cells are treated for 30 minutes at room temperature. The treatment is then removed and the cells are incubated with lysis buffer containing phosphatase inhibitors for 10 minutes at room temperature. […] The biotinylated antibody binds to the streptavidin-coated donor beads and the phopsho-ERK1/2 antibody binds to the acceptor beads. Plates are read on an EnVision reader (Perkin Elmer) and excitation of the beads at 680 nm with a laser induces the release of singlet oxygen molecules from the donor beads that trigger energy transfer to the acceptor beads in close proximity, producing a signal that can be measured at 570 nm. Both antibodies bind to phosphorylated ERK proteins, bringing the donor and acceptor beads into close proximity.
as §1
The subject of test [3] is C-RAF-mediated ERK activation in B-RAF^WT IPC-298 cells (NRAS^Q61L). Description: IPC-298 AlphaScreen SureFire pERK1/2 cellular assay. To be noted: 1 hour treatment, relative to reference compound Dabrafenib. Format: cell-based, human.
Protocol: On day 2, compounds at a concentration of 6 mM are serially diluted 5 μl into 45 μl of 100% dimethyl sulfoxide (DMSO) six times in 96-well plates for a total of 7 dilution points. […] The cells are treated for 1 hour at 37° C. in 5% CO2. The treatment is then removed and the cells are incubated with lysis buffer containing phosphatase inhibitors for 10 minutes at room temperature with gentle shaking. […] The biotinylated antibody binds to the streptavidin-coated donor beads and the phopsho-ERK1/2 antibody binds to the acceptor beads. Plates are read on an EnVision reader (Perkin Elmer) and excitation of the beads at 680 nm with a laser induces the release of singlet oxygen molecules from the donor beads that triggers energy transfer to the acceptor beads in close proximity, producing a signal that can be measured at 570 nm. Both antibodies bind to phosphorylated ERK proteins, bringing the donor and acceptor beads into close proximity.
All data are analysed using the GraphPad Prism software package. Activation of ERK phosphorylation is expressed as a percentage of activation relative to the reference compound, Dabrafenib.
Where [4] appears, read: IC50 category, read-out: BRAF^V600E binding affinity.
Setting [5] is: IC50 category, read-out: CRAF binding affinity.
[6] abbreviates: 1 hr treatment, read-out: WiDr pERK inhibition category 1 hr.
[7] abbreviates: 24 hrs treatment, read-out: WiDr pERK inhibition category 24 hrs.
Where [8] appears, read: read-out: A375 pERK inhibition IC50.
Setting [9] is: read-out: A375 pERK inhibition category.
[10] abbreviates: read-out: BRAF^V600E binding affinity IC50.
Setting [11] is: read-out: CRAF binding affinity IC50.

Sequence of B-RAF^V600E kinase (P15056 whole entry V600E): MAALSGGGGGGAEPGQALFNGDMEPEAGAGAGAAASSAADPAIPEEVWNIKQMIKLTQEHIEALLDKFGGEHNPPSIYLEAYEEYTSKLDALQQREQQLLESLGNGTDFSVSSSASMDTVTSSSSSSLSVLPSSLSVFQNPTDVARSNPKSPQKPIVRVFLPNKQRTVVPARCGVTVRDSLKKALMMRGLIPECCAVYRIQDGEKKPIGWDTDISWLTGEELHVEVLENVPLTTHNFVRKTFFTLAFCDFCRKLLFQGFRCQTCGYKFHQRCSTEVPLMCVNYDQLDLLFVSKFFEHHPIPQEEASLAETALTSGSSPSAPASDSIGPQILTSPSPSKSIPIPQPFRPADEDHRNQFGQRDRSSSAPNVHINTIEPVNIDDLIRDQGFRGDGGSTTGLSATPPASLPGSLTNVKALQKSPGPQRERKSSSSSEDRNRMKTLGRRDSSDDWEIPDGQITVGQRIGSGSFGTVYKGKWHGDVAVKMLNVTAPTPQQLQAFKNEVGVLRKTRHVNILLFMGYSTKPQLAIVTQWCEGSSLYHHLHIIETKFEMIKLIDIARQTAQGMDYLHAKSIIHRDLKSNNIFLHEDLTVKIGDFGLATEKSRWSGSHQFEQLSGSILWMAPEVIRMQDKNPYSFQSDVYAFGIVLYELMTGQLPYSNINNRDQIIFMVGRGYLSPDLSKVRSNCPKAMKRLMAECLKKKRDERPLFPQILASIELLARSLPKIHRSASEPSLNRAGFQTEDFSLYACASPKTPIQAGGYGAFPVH
Sequence of C-RAF Y340D/Y341D kinase (P04049 306-648 Y340D/Y341D): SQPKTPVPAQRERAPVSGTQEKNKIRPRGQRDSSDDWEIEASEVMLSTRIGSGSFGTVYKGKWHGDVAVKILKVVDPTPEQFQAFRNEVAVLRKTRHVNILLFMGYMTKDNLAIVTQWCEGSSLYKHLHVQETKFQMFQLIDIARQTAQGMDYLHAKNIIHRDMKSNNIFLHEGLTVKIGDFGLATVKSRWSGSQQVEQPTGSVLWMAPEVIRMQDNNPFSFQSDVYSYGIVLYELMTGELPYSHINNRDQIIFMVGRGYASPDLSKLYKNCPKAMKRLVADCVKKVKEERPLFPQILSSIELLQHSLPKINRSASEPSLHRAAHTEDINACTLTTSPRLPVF
Protocol for B-RAF^V600E kinase: LanthaScreen™ Eu kinase binding assay
To determine whether compounds bind to RAF kinases, they are tested in a competition binding assay. […] A Europium-labelled anti-tag antibody also binds to the kinase of interest.
(§2) Compounds at a concentration of 3 mM are serially diluted (e.g. 10 μl 90 μl of 100% dimethyl sulfoxide (DMSO)) seven times in 96-well plates for a total of 8 dilution points. Each DMSO dilution is further diluted 1:100 in kinase buffer (e.g. 5 μl into 495 μl kinase buffer) containing 50 mM HEPES pH 7.5, 10 mM MgCl2, 1 mM EGTA, 0.01% Brij-35.
(§3) The plates are incubated for 5 hours at room temperature and read on an EnVision plate reader (Perkin Elmer).
as §1
Protocol for C-RAF Y340D/Y341D kinase: LanthaScreen™ Eu kinase binding assay
To determine whether compounds bind to RAF kinases, they are tested in a competition binding assay. The Invitrogen LanthaScreen™ Eu binding assay involves the binding of an Alexa-Fluor® 647-labelled, ATP-competitive kinase tracer to the kinase of interest. A Europium-labelled anti-tag antibody also binds to the kinase of interest. Simultaneous binding of the tracer and the antibody brings them into close proximity and upon excitation at 340 nm, triggers fluorescence resonance energy transfer (FRET) between the Europium donor fluorophore on the antibody and the Alexa Fluor® 647 acceptor on the tracer. The dual emission signal produced can be measured at 665 and 615 nm.
as §2, §3
All data are analysed using the GraphPad Prism software package. Inhibition of tracer binding to the kinase of interest is assessed by determination of IC50 value, which is defined as the concentration of compound which decreased the level of FRET signal measured at 665 nm by 50%.

On to `O=C1CCc2c(Oc3ccc4c(c3)O[C@H](c3nc(-c5ccccc5)c[nH]3)CO4)ccnc2N1` [Example 20, 5-[[(3R)-3-(4-phenyl-1H-imidazol-2-yl)-2,3-dihydro-1,4-benzodioxin-6-yl]oxy]-3,4-dihydro-1H-1,8-naphthyridin-2-one], for which the IC50 on B-RAF^V600E kinase (setting [4]) is below 4 nM; on C-RAF Y340D/Y341D kinase (setting [5]), below 4 nM; in test [1] (setting [6]), 70 to 300 nM; in test [1] (setting [7]), above 300 nM; in test [2] (setting [8]), 282 nM; in test [2] (setting [9]) it was 70 to 300 nM. Also, the “paradoxical activation of MAPK pathway (ERK phosphorylation)” value (“paradoxical activation of MAPK pathway” below) in test [3] is “reduced paradoxical activity”.

Consider `O=C1CCc2c(Oc3ccc4c(c3)CC(c3nc(-c5ccccc5)c[nH]3)CO4)ccnc2N1` (stereo not drawn) [Example 3, 5-[3-(4-phenyl-1H-imidazol-2-yl)chroman-6-yl]oxy-3,4-dihydro-1H-1,8-naphthyridin-2-one], for which, in test [3], the “paradoxical activation of MAPK pathway” value is on record as “reduced paradoxical activation of MAPK pathway in comparison to Dabrafenib; also recorded: reduced paradoxical activity”.

On to `O=C1CCc2c(Oc3ccc4c(c3)CC(c3ncc(-c5ccc6c(c5)OCO6)[nH]3)CO4)ccnc2N1` (stereo not drawn) [Example 14, 5-[3-[5-(1,3-benzodioxol-5-yl)-1H-imidazol-2-yl]chroman-6-yl]oxy-3,4-dihydro-1H-1,8-naphthyridin-2-one], for which the IC50 at B-RAF^V600E kinase (setting [4]) and on C-RAF Y340D/Y341D kinase (setting [5]) was below 4 nM throughout.

Turning to `O=C1CCc2c(Oc3ccc4c(c3)CC(c3cc(-c5ccccc5)[nH]n3)CO4)ccnc2N1` (stereo not drawn) [Example 18, 5-[3-(5-phenyl-1H-pyrazol-3-yl)chroman-6-yl]oxy-3,4-dihydro-1H-1,8-naphthyridin-2-one], the IC50 at B-RAF^V600E kinase (setting [4]) is below 4 nM; at C-RAF Y340D/Y341D kinase (setting [5]), below 4 nM; in test [2] (setting [9]), above 300 nM. For the same compound, in test [3], the “paradoxical activation of MAPK pathway” value is given as “reduced paradoxical activity”.

Take `O=C1CCc2c(Oc3ccc4c(c3)CC(c3ncc(-c5ccccc5Cl)[nH]3)CO4)ccnc2N1` (stereo not drawn) [Example 8, 5-[3-[5-(2-chlorophenyl)-1H-imidazol-2-yl]chroman-6-yl]oxy-3,4-dihydro-1H-1,8-naphthyridin-2-one]: the IC50 at B-RAF^V600E kinase (setting [4]) and on C-RAF Y340D/Y341D kinase (setting [5]) was below 4 nM throughout.

As to `O=C1CCc2c(Oc3ccc4c(c3)CC(c3nc(-c5cccs5)c[nH]3)CO4)ccnc2N1` (stereo not drawn) [Example 7, 5-[3-[4-(2-thienyl)-1H-imidazol-2-yl]chroman-6-yl]oxy-3,4-dihydro-1H-1,8-naphthyridin-2-one], the IC50 is below 4 nM on B-RAF^V600E kinase (setting [4]); 1.1 nM at B-RAF^V600E kinase (setting [10]); below 4 nM on C-RAF Y340D/Y341D kinase (setting [5]); 0.5 nM on C-RAF Y340D/Y341D kinase (setting [11]); below 70 nM in test [2] (setting [9]). Also, in test [3], the “paradoxical activation of MAPK pathway” value is on record as “reduced paradoxical activity”.

With `Cc1cc(Oc2ccc3c(c2)CC(c2ncc(-c4ccccc4)[nH]2)CO3)ccn1` (stereo not drawn) [Example 21, 2-Methyl-4-[3-(5-phenyl-1H-imidazol-2-yl)chroman-6-yl]oxy-pyridine], the IC50 on B-RAF^V600E kinase (setting [4]) and at C-RAF Y340D/Y341D kinase (setting [5]) was 4 to 100 nM throughout.

As to `O=C1CCc2c(Oc3ccc4c(c3)CC(c3nc5ccccc5[nH]3)CO4)ccnc2N1` (stereo not drawn) [Example 1, 5-[3-(1H-benzimidazol-2-yl)chroman-6-yl]oxy-3,4-dihydro-1H-1,8-naphthyridin-2-one], the IC50 at B-RAF^V600E kinase (setting [4]) and at C-RAF Y340D/Y341D kinase (setting [5]) was below 4 nM throughout.

With `O=C1CCc2c(Oc3ccc4c(c3)CC(c3nc(-c5coc6ccccc56)c[nH]3)CO4)ccnc2N1` (stereo not drawn) [Example 10, 5-[3-[4-(benzofuran-3-yl)-1H-imidazol-2-yl]chroman-6-yl]oxy-3,4-dihydro-1H-1,8-naphthyridin-2-one], the IC50 on B-RAF^V600E kinase (setting [4]) and on C-RAF Y340D/Y341D kinase (setting [5]) was below 4 nM each time.

Regarding `O=C1CCc2c(Oc3ccc4c(c3)CC(c3ncc(-c5cccnc5)[nH]3)CO4)ccnc2N1` (stereo not drawn) [Example 11, 5-[3-[5-(3-pyridyl)-1H-imidazol-2-yl]chroman-6-yl]oxy-3,4-dihydro-1H-1,8-naphthyridin-2-one], the IC50 at B-RAF^V600E kinase (setting [4]) and on C-RAF Y340D/Y341D kinase (setting [5]) was below 4 nM throughout.

`O=C1CCc2c(Oc3ccc4c(c3)C=C(c3nc(-c5ccccc5)c[nH]3)CO4)ccnc2N1` [Example 16, 5-[[3-(4-phenyl-1H-imidazol-2-yl)-2H-chromen-6-yl]oxy]-3,4-dihydro-1H-1,8-naphthyridin-2-one]: the IC50 on B-RAF^V600E kinase (setting [4]) was 4 to 100 nM; at C-RAF Y340D/Y341D kinase (setting [5]), below 4 nM; in test [2] (setting [9]), above 300 nM.

On to `O=C1CCc2c(Oc3ccc4c(c3)CC(c3nc(-c5ccccc5)no3)CO4)ccnc2N1` (stereo not drawn) [Example 17, 5-[3-(3-phenyl-1,2,4-oxadiazol-5-yl)chroman-6-yl]oxy-3,4-dihydro-1H-1,8-naphthyridin-2-one], for which the IC50 on B-RAF^V600E kinase (setting [4]) and on C-RAF Y340D/Y341D kinase (setting [5]) was 4 to 100 nM in each case.

With `O=C1CCc2c(Oc3ccc4c(c3)O[C@@H](c3nc(-c5ccccc5)c[nH]3)CO4)ccnc2N1` [Example 19, 5-[[(3S)-3-(4-phenyl-1H-imidazol-2-yl)-2,3-dihydro-1,4-benzodioxin-6-yl]oxy]-3,4-dihydro-1H-1,8-naphthyridin-2-one], the IC50 on B-RAF^V600E kinase (setting [4]) is below 4 nM; on C-RAF Y340D/Y341D kinase (setting [5]), below 4 nM; in test [1] (setting [6]) it was 70 to 300 nM; in test [1] (setting [7]), above 300 nM; in test [2] (setting [8]), 155 nM; in test [2] (setting [9]) it was 70 to 300 nM. For the same compound, the “paradoxical activation of MAPK pathway” value in test [3] is listed as “reduced paradoxical activity”.

As for `O=C1CCc2c(Oc3ccc4c(c3)CC(c3nc5cccc(Cl)c5[nH]3)CO4)ccnc2N1` (stereo not drawn) [Example 2, 5-[3-(7-chloro-1H-benzimidazol-2-yl)chroman-6-yl]oxy-3,4-dihydro-1H-1,8-naphthyridin-2-one], the IC50 was 4 to 100 nM at B-RAF^V600E kinase (setting [4]), 4 to 100 nM at C-RAF Y340D/Y341D kinase (setting [5]) and 70 to 300 nM in test [2] (setting [9]).

For the compound `O=C1CCc2c(Oc3ccc4c(c3)CC(c3nc(-c5ccsc5)c[nH]3)CO4)ccnc2N1` (stereo not drawn) [Example 6, 5-[3-[4-(3-thienyl)-1H-imidazol-2-yl]chroman-6-yl]oxy-3,4-dihydro-1H-1,8-naphthyridin-2-one], the IC50 on B-RAF^V600E kinase (setting [4]) was below 4 nM; at B-RAF^V600E kinase (setting [10]), 1 nM; at C-RAF Y340D/Y341D kinase (setting [5]), below 4 nM; on C-RAF Y340D/Y341D kinase (setting [11]) it was 0.4 nM; in test [2] (setting [8]) it was 23.4 nM; in test [2] (setting [9]), below 70 nM. Besides, the “paradoxical activation of MAPK pathway” value in test [3] is on record as “reduced paradoxical activity”.

Consider `CS(=O)(=O)c1ccc(-c2cnc(C3COc4ccc(Oc5ccnc6c5CCC(=O)N6)cc4C3)[nH]2)cc1` (stereo not drawn) [Example 12, 5-[3-[5-(4-methylsulfonylphenyl)-1H-imidazol-2-yl]chroman-6-yl]oxy-3,4-dihydro-1H-1,8-naphthyridin-2-one], for which the IC50 on B-RAF^V600E kinase (setting [4]) was above 100 nM; at C-RAF Y340D/Y341D kinase (setting [5]), 4 to 100 nM.

Regarding `O=C1CCc2c(Oc3ccc4c(c3)CC(c3ncc(-c5ccc6c(c5)OCCO6)[nH]3)CO4)ccnc2N1` (stereo not drawn) [Example 15, 5-[3-[5-(2,3-dihydro-1,4-benzodioxin-6-yl)-1H-imidazol-2-yl]chroman-6-yl]oxy-3,4-dihydro-1H-1,8-naphthyridin-2-one], the results for the IC50 at B-RAF^V600E kinase (setting [4]) and on C-RAF Y340D/Y341D kinase (setting [5]) were 4 to 100 nM and below 4 nM, respectively.

`O=C1CCc2c(Oc3ccc4c(c3)CC(c3ncc(-c5ccc(F)cc5)[nH]3)CO4)ccnc2N1` (stereo not drawn) [Example 13, 5-[3-[5-(4-fluorophenyl)-1H-imidazol-2-yl]chroman-6-yl]oxy-3,4-dihydro-1H-1,8-naphthyridin-2-one]: the IC50 on B-RAF^V600E kinase (setting [4]) and on C-RAF Y340D/Y341D kinase (setting [5]) was below 4 nM throughout.

Take `O=C1CCc2c(Oc3ccc4c(c3)CC(c3nc(-c5ccncc5)c[nH]3)CO4)ccnc2N1` (stereo not drawn) [Example 4, 5-[3-[4-(4-pyridyl)-1H-imidazol-2-yl]chroman-6-yl]oxy-3,4-dihydro-1H-1,8-naphthyridin-2-one]: the IC50 at B-RAF^V600E kinase (setting [4]) is below 4 nM; at C-RAF Y340D/Y341D kinase (setting [5]), below 4 nM; in test [2] (setting [9]), above 300 nM. In addition, in test [3], the “paradoxical activation of MAPK pathway” value is on record as “reduced paradoxical activity”.

Consider `CC(C)(C)c1c[nH]c(C2COc3ccc(Oc4ccnc5c4CCC(=O)N5)cc3C2)n1` (stereo not drawn) [Example 5, 5-[3-(4-tert-butyl-1H-imidazol-2-yl)chroman-6-yl]oxy-3,4-dihydro-1H-1,8-naphthyridin-2-one], for which the values for the IC50 on B-RAF^V600E kinase (setting [4]) and on C-RAF Y340D/Y341D kinase (setting [5]) were 4 to 100 nM and below 4 nM, respectively.

Turning to `O=C1CCc2c(Oc3ccc4c(c3)CC(c3ncc(-c5cccc(Cl)c5)[nH]3)CO4)ccnc2N1` (stereo not drawn) [Example 9, 5-[3-[5-(3-chlorophenyl)-1H-imidazol-2-yl]chroman-6-yl]oxy-3,4-dihydro-1H-1,8-naphthyridin-2-one], the IC50 at B-RAF^V600E kinase (setting [4]) and on C-RAF Y340D/Y341D kinase (setting [5]) was below 4 nM in each case.

The record behind these values is patent publication US10183939B2, “Fused bicyclic (hetero)aromatic compounds useful for the treatment of cancers” (Redx Pharma PLC, priority 2014, dated 2019).
